The experiment concerns female F344 rats. In words: Effect on bone density (femur, DXA) after oophorectomy or sham surgery. The following applies: at 3 mg/kg or less, orally once a day, six days a week, six weeks. In kind it is in vivo. As to the method:
Eight to 12 week old female F344 rats were purchased from Charles River Laboratories and used in the following experiment. Rats were anesthetized with an intraperitoneal administration of 40 mg/kg of Somnopentyl (Kyoritsu Seiyaku Corporation), and then oophorectomy or sham surgery was performed. From the day after surgery, a suspension of the test compound in a 0.5% methyl cellulose solution (Wako Pure Chemical Industries, Ltd. Cat. No. 133-14255) was orally administered once a day, six days a week. Six weeks after administration, the rats were euthanized by removal of whole blood from the lower abdominal aorta under Somnopentyl anesthesia, and the left and right femur was excised.
After removal of soft tissues, the bone density of the femur thus excised was measured by a DXA apparatus, DCS-600R (Aloka Co., Ltd.). The bone density was assessed in the whole femur as well as in three equal sections of the whole femur, namely the proximal end, the shaft, and the distal end.

`Cn1ccc2cc(-c3cncc4ccc(C(N)=O)cc34)ccc21` [Example 33]: the “bone density of the femur” value is listed as “significantly increased the bone density”.
As for `NC(=O)c1ccc2cncc(-c3ccc(Cl)cc3)c2c1` [Example 118], the entry is “significantly increased the bone density”.
For `NC(=O)c1ccc2cncc(-c3ccc(OCCOC4CCOCC4)cc3)c2n1` [Example 9, 8-{4-[2-(Tetrahydro-2H-pyran-4-yloxy)ethoxy]phenyl}-1,6-naphthyridine-2-carboxamide], the “bone density of the femur” value is given as “significantly increased the bone density”.
With `NC(=O)c1ccc2cncc(-c3ccc(OCCO)cc3)c2c1` [Example 36], the “bone density of the femur” value is “significantly increased the bone density”.
